PubChem BioAssay AID248 (DTP/NCI, 2004)
Toxic doses and inconclusive results are not listed. Rule as the data show it: active = T/C of 150% or more; inactive = T/C below 125%.

Test system: L1210 leukemia ip in BDF1 mice, survival T/C
Test: NCI In Vivo Anticancer Drug Screen. Data for tumor model L1210 Leukemia (intraperitoneal) in B6D2F1 (BDF1) mice
Conditions: endpoint: mean survival time, higher = longer survival
Summary of the method: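 Tumor was transplanted into mice, which were then dosed with test compound or vehicle alone. Survival was recorded for each group, and the treated figure was expressed relative to the control figure.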

[1] = dose: 100.0 mg/kg/injection, schedule: Q04DX002 (ip), vehicle: Klucel (hydroxypropylcellulose) (HPC)
[2] = dose: 200.0 mg/kg/injection, schedule: Q04DX002 (ip), vehicle: Klucel (hydroxypropylcellulose) (HPC)
[3] = dose: 400.0 mg/kg/injection, schedule: Q04DX002 (ip), vehicle: Klucel (hydroxypropylcellulose) (HPC)
[4] = dose: 100.0 mg/kg/injection, schedule: Q01DX001 (ip), vehicle: saline
[5] = dose: 100.0 mg/kg/injection, schedule: Q01DX009 (ip), vehicle: Klucel (hydroxypropylcellulose) (HPC)
[6] = dose: 200.0 mg/kg/injection, schedule: Q01DX009 (ip), vehicle: Klucel (hydroxypropylcellulose) (HPC)
[7] = dose: 400.0 mg/kg/injection, schedule: Q01DX009 (ip), vehicle: Klucel (hydroxypropylcellulose) (HPC)
[8] = dose: 100.0 mg/kg/injection, schedule: Q04DX003 (ip), vehicle: Klucel (hydroxypropylcellulose) (HPC)
[9] = dose: 200.0 mg/kg/injection, schedule: Q04DX003 (ip), vehicle: Klucel (hydroxypropylcellulose) (HPC)
[10] = dose: 400.0 mg/kg/injection, schedule: Q04DX003 (ip), vehicle: Klucel (hydroxypropylcellulose) (HPC)
[11] = dose: 100.0 mg/kg/injection, schedule: Q04DX002 (ip), vehicle: saline with Tween-80
[12] = dose: 200.0 mg/kg/injection, schedule: Q04DX002 (ip), vehicle: saline with Tween-80
[13] = dose: 400.0 mg/kg/injection, schedule: Q04DX002 (ip), vehicle: saline with Tween-80
[14] = dose: 100.0 mg/kg/injection, schedule: Q01DX009 (ip), vehicle: saline with Tween-80
[15] = dose: 100.0 mg/kg/injection, schedule: Q04DX003 (ip), vehicle: saline with Tween-80
[16] = dose: 200.0 mg/kg/injection, schedule: Q01DX009 (ip), vehicle: saline with Tween-80
[17] = dose: 200.0 mg/kg/injection, schedule: Q04DX003 (ip), vehicle: saline with Tween-80
[18] = dose: 400.0 mg/kg/injection, schedule: Q01DX009 (ip), vehicle: saline with Tween-80
[19] = dose: 400.0 mg/kg/injection, schedule: Q04DX003 (ip), vehicle: saline with Tween-80
[20] = dose: 75.0 mg/kg/injection, schedule: Q01DX001 (ip), vehicle: saline
[21] = dose: 150.0 mg/kg/injection, schedule: Q01DX001 (ip), vehicle: saline
[22] = dose: 200.0 mg/kg/injection, schedule: Q01DX001 (ip), vehicle: saline

Measured: T/C

CN(C)/C=N/N1CCN(C)CC1
inactive: dose: 100.0 mg/kg/injection, schedule: Q04DX002 (ip), vehicle: saline 115 % of control | dose: 200.0 mg/kg/injection, schedule: Q04DX002 (ip), vehicle: saline 101 % of control | dose: 400.0 mg/kg/injection, schedule: Q04DX002 (ip), vehicle: saline 97 % of control

O=C1CC2CCCCC2c2ccccc21 (configuration not stated)
inactive: dose: 12.5 mg/kg/injection, schedule: Q01DX001 (ip), vehicle: saline 114 % of control | dose: 25.0 mg/kg/injection, schedule: Q01DX001 (ip), vehicle: saline 102 % of control | dose: 50.0 mg/kg/injection, schedule: Q01DX001 (ip), vehicle: saline 100 % of control

Cc1c(C)c(C)c(CC2(C)CSC2)c(CC2(C)CSC2)c1C
inactive: [1] 100 % of control | [2] 91 % of control | [3] 94 % of control

Cc1c(CCO)sc[n+]1Cc1cccc([N+](=O)[O-])c1
inactive: [4] 98 % of control

O=[N+]([O-])c1ccc(Oc2ccc(S(=O)(=O)F)cc2)cc1
inactive: [5] 106 % of control | [6] 97 % of control | [7] 98 % of control

Cc1cccc(NS(=O)(=O)c2ccccc2)c1C
inactive: [5] 91 % of control | [8] 97 % of control | [6] 91 % of control | [9] 93 % of control | [7] 98 % of control | [10] 98 % of control

C1CCC2C(C1)CC1CCCCC12 (configuration not stated)
inactive: [11] 101 % of control | [12] 105 % of control | [13] 101 % of control

CCC(=O)OCC(C)([N+](=O)[O-])[N+](=O)[O-]
inactive: [14] 106 % of control | [15] 97 % of control | [16] 97 % of control | [17] 97 % of control | [18] 101 % of control | [19] 109 % of control

CC(=O)OCc1ccc2ccccc2c1
inactive: [15] 101 % of control | [17] 106 % of control | [19] 101 % of control

O=C(N/N=C/c1cccc([N+](=O)[O-])c1)c1ccccc1Cl
inactive: dose: 50.0 mg/kg/injection, schedule: Q01DX009 (ip), vehicle: saline with Tween-80 98 % of control | [14] 107 % of control | [16] 102 % of control

CCOC(=O)c1nc2c(C)nc(N(C)C)nc2n(C)c1=O
inactive: dose: 100.0 mg/kg/injection, schedule: Q01DX001 (ip), vehicle: Klucel (hydroxypropylcellulose) (HPC) 100 % of control | dose: 200.0 mg/kg/injection, schedule: Q01DX001 (ip), vehicle: Klucel (hydroxypropylcellulose) (HPC) 97 % of control | dose: 400.0 mg/kg/injection, schedule: Q01DX001 (ip), vehicle: Klucel (hydroxypropylcellulose) (HPC) 94 % of control

CCN=C1N[N+]2=CCCCC2S1 (configuration not stated)
inactive: dose: 50.0 mg/kg/injection, schedule: Q04DX003 (ip), vehicle: saline 103 % of control | dose: 100.0 mg/kg/injection, schedule: Q04DX003 (ip), vehicle: saline 109 % of control

CC[CH2][Pb]([Cl])([CH2]CC)[CH2]CC
inactive: dose: 12.5 mg/kg/injection, schedule: Q04DX003 (ip), vehicle: Klucel (hydroxypropylcellulose) (HPC) 106 % of control | dose: 25.0 mg/kg/injection, schedule: Q04DX003 (ip), vehicle: Klucel (hydroxypropylcellulose) (HPC) 95 % of control | dose: 50.0 mg/kg/injection, schedule: Q04DX003 (ip), vehicle: Klucel (hydroxypropylcellulose) (HPC) 90 % of control

Nc1ccccc1SC(CC(=O)c1ccccc1)c1c(Cl)cccc1Cl (configuration not stated)
inactive: dose: 100.0 mg/kg/injection, schedule: Q01DX005 (ip), vehicle: Klucel (hydroxypropylcellulose) (HPC) 94 % of control | [1] 110 % of control | dose: 200.0 mg/kg/injection, schedule: Q01DX005 (ip), vehicle: Klucel (hydroxypropylcellulose) (HPC) 108 % of control | [2] 95 % of control | dose: 400.0 mg/kg/injection, schedule: Q01DX005 (ip), vehicle: Klucel (hydroxypropylcellulose) (HPC) 94 % of control | [3] 95 % of control

CCC(O)C(CCN(C)C)(C(=O)N(C)C)c1ccccc1 (configuration not stated)
inactive: [20] 98 % of control | [21] 100 % of control

Cc1ccccc1/C=N/NC(=O)c1cccc2ccccc12
inactive: [4] 89 % of control | [22] 100 % of control

O=C(O)CCCc1cccc2ccccc12
inactive: dose: 37.0 mg/kg/injection, schedule: Q01DX009 (ip), vehicle: gum acacia 97 % of control | dose: 75.0 mg/kg/injection, schedule: Q01DX009 (ip), vehicle: gum acacia 103 % of control | dose: 100.0 mg/kg/injection, schedule: Q04DX003 (ip), vehicle: gum acacia 97 % of control | dose: 150.0 mg/kg/injection, schedule: Q01DX009 (ip), vehicle: gum acacia 92 % of control | dose: 200.0 mg/kg/injection, schedule: Q04DX003 (ip), vehicle: gum acacia 86 % of control

CNc1nc(N(C)C)nc(N(C)C)n1
inactive: [20] 92 % of control | [21] 94 % of control

CCC(=O)Nc1ccccc1Cl
inactive: [14] 97 % of control | [16] 98 % of control | [18] 101 % of control

COc1ccc(OCCOC(=O)Nc2ccc(C)cc2[N+](=O)[O-])cc1
inactive: dose: 50.0 mg/kg/injection, schedule: Q01DX009 (ip), vehicle: Klucel (hydroxypropylcellulose) (HPC) 97 % of control | [5] 90 % of control | [8] 103 % of control | [6] 90 % of control | [9] 103 % of control | [10] 100 % of control

COc1cccc(N=CC(=O)c2ccc(C)cc2)c1
inactive: dose: 75.0 mg/kg/injection, schedule: Q04DX003 (ip), vehicle: Klucel (hydroxypropylcellulose) (HPC) 95 % of control | dose: 150.0 mg/kg/injection, schedule: Q04DX003 (ip), vehicle: Klucel (hydroxypropylcellulose) (HPC) 89 % of control

CCCCCCCCCCCC#N
inactive: [14] 107 % of control | [16] 96 % of control | [18] 90 % of control

O=C(O)c1ccc(CCCCl)cc1
inactive: dose: 12.5 mg/kg/injection, schedule: Q01DX001 (ip), vehicle: Klucel (hydroxypropylcellulose) (HPC) 98 % of control | dose: 25.0 mg/kg/injection, schedule: Q01DX001 (ip), vehicle: Klucel (hydroxypropylcellulose) (HPC) 103 % of control | dose: 50.0 mg/kg/injection, schedule: Q01DX001 (ip), vehicle: Klucel (hydroxypropylcellulose) (HPC) 94 % of control

CC(=O)[C@H]1CC[C@H]2[C@@H]3CC[C@@H]4C[C@@H](O)CC[C@]4(C)[C@H]3CC[C@]12C
inactive: [11] 97 % of control | [12] 100 % of control | [13] 90 % of control

CCOC(=O)N/N=C/c1ccc([N+](=O)[O-])cc1
inactive: [4] 94 % of control | [22] 98 % of control | dose: 400.0 mg/kg/injection, schedule: Q01DX001 (ip), vehicle: saline 102 % of control
